Here are results for 24 compounds from patent US10604509B2, “Nrf2 regulators” (GlaxoSmithKline Intellectual Property Development Limited, priority 2015, dated 2020).

Structures can show the parent of a compound that is named as a salt.

In one assay the test system is NQO1 specific enzyme activity in BEAS-2B cells. Nature of the assay: BEAS-2B NQO1 MTT assay. The format is cell-based. Particulars: BEAS-2B cells, 48 hours with compound, MTT readout; read-out: EC50 of NQO1 specific activity induction. In a few lines:
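NQO1 specific activity, an NRF2 activation marker, read kinetically as absorbance change at 570 nm for 30 min after MTT cocktail addition to crude lysates of BEAS-2B cells exposed 48 h to compound. Three-parameter fit of Delta OD/min against log concentration gives EC50; lysate portion used for Cell Titer Glo.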
The term EC50 denotes the concentration giving half of the maximal effect. As for `CCC1CCN(Cc2nccn2Cc2cc(C(CCc3cn(CC)nn3)C(C)(C)C(=O)O)ccc2C)CC1` (single isomer, unassigned) [Example 250, 5-(1-ethyl-1H-1,2,3-triazol-4-yl)-3-(3-((2-((4-ethylpiperidin-1-yl)methyl)-1H-imidazol-1-yl)methyl)-4-methylphenyl)-2,2-dimethylpentanoic acid], the EC50 was 10 to 100 nM.

The assay is the same for the next values; noted with them: BEAS-2B cells, 48 hours with compound, MTT readout; trifluoroacetic acid salt; read-out: EC50 of NQO1 specific activity induction.
As for `Cc1ccc(C(c2ccc3c(nnn3C)c2C)C(C)(C)C(=O)O)cc1Cn1ccnc1CN1CCCCCC1` (stereo not drawn) [Example 141, 3-(3-((2-(Azepan-1-ylmethyl)-1H-imidazol-1-yl)methyl)-4-methylphenyl)-3-(1,4-dimethyl-1H-benzo[d][1,2,3]triazol-5-yl)-2,2-dimethylpropanoic acid, trifluoroacetic acid salt], the EC50 lay in the range of 1000 to 10000 nM.

The same assay, now with this note: Homo sapiens, BEAS-2B, 48 h, BEAS-2B cells, 48 hours with compound, MTT readout; read-out: EC50 of NQO1 specific activity induction.
For the compound `CCn1cc(CCC(c2ccc(C)c(CN3Cc4cnccc4OC(C)(C)C3)c2)C(C)C(=O)O)nn1` (single isomer, unassigned) [Example 227, 3-(3-((2,2-Dimethyl-2,3-dihydropyrido[3,4-f][1,4]oxazepin-4(5H)-yl)methyl)-4-methylphenyl)-5-(1-ethyl-1H-1,2,3-triazol-4-yl)-2-methylpentanoic acid, Trifluoroacetic acid salt], the EC50 lay within 100 to 1000 nM.

Turning to `Cc1ccc(C(CC(=O)O)c2ccc3c(nnn3C)c2C)cc1Cn1ccnc1CC1CCCCC1` (stereo not drawn) [Example 127, 3-(3-((2-(Cyclohexylmethyl)-1H-imidazol-1-yl)methyl)-4-methylphenyl)-3-(1,4-dimethyl1H-benzo[d][1,2,3]triazol-5-yl)propanoic Acid], the EC50 lay in the range of 10 to 100 nM.

Turning to `CC[C@@H]1CN(Cc2cc([C@H](CC(=O)O)c3ccc4c(nnn4C)c3C)ccc2C)Cc2ccncc2O1` [Example 259, (S)-3-(1,4-dimethyl-1H-benzo[d][1,2,3]triazol-5-yl)-3-(3-(((R)-2-ethyl-2,3-dihydropyrido[4,3-f][1,4]oxazepin-4(5H)-yl)methyl)-4-methylphenyl)propanoic acid], the EC50 was 100 to 1000 nM.

As to `CCn1nnc2c(C)c([C@H](c3ccc(C)c(Cn4ccnc4CN4CCCCC4)c3)[C@@H](C)C(=O)O)ccc21` [Example 210, (2R,3S)-3-(1-Ethyl-4-methyl-1H-benzo[d][1,2,3]triazol-5-yl)-2-methyl-3-(4-methyl-3-((2-(piperidin-1-ylmethyl)-1H-imidazol-1-yl)methyl)phenyl)propanoic Acid], the EC50 was in the range of 10 to 100 nM.

As for `CCn1cc(CCC(CC(=O)O)c2ccc(Cl)c(CN3Cc4cccnc4OC(C)(C)C3)c2)nn1` (stereo not drawn) [Example 233, 3-(4-Chloro-3-((2,2-dimethyl-2,3-dihydropyrido[3,2-f][1,4]oxazepin-4(5H)-yl)methyl)phenyl)-5-(1-ethyl-1H-1,2,3-triazol-4-yl)pentanoic Acid], the EC50 was 1000 to 10000 nM.

With `Cc1ccc([C@@H](c2ccc3c(nnn3C)c2C)C(C)(C)C(=O)O)cc1CN1CCC[C@@H](n2cccn2)C1` [compound 184, (S)-3-(3-(((R)-3-(1H-Pyrazol-1-yl)piperidin-1-yl)methyl)-4-methylphenyl)-3-(1,4-dimethyl-1H-benzo[d][1,2,3]triazol-5-yl)-2,2-dimethylpropanoic acid], the EC50 lay in the range of 100 to 1000 nM.

Turning to `Cc1ccc2c(c1)CN(Cc1cc([C@@H](CC(=O)O)c3ccc4c(nnn4C)c3C)ccc1C)CC(C)(C)O2` [Example 175, (R)-3-(1,4-Dimethyl-1H-benzo[d][1,2,3]triazol-5-yl)-3-(4-methyl-3-((2,2,7-trimethyl-2,3-dihydrobenzo[f][1,4]oxazepin-4(5H)-yl)methyl)phenyl)propanoic Acid], the EC50 fell in the range of 10 to 100 nM.

`Cc1ccc(C(c2ccc3c(nnn3C)c2C)C(C)(C)C(=O)O)cc1CN1CCCC(n2cccn2)C1` (stereo not drawn) [Example 162, 3-(3-((3-(1H-Pyrazol-1-yl)piperidin-1-yl)methyl)-4-methylphenyl)-3-(1,4-dimethyl-1H-benzo[d][1,2,3]triazol-5-yl)-2,2-dimethylpropanoic Acid]: the EC50 lay in the range of 100 to 1000 nM.

Consider `CC[C@@H]1CN(Cc2cc(C(c3ccc4c(nnn4C)c3C)C(C)(C)C(=O)O)ccc2C)Cc2cccnc2O1` (stereo partly drawn) [Example 113, 3-(1,4-Dimethyl-1H-benzo[d][1,2,3]triazol-5-yl)-3-(3-(((R)-2-ethyl-2,3-dihydropyrido[3,2-f][1,4]oxazepin-4(5H)-yl)methyl)-4-methylphenyl)-2,2-dimethylpropanoic Acid], for which the EC50 lay within 100 to 1000 nM.

On to `Cc1ccc(C(CC(=O)O)c2ccc3c(nnn3C)c2C)cc1CN1Cc2ccccc2O[C@H](C)C1` (stereo partly drawn) [Example 94, 3-(1,4-Dimethyl-1H-benzo[d][1,2,3]triazol-5-yl)-3-(4-methyl-3-(((R)-2-methyl-2,3-dihydrobenzo[f][1,4]oxazepin-4(5H)-yl)methyl)phenyl)propanoic Acid, Formic Acid Salt], for which the EC50 fell in the range of 1 to 10 nM.

Regarding `CCn1cc(CCC(c2ccc(C)c(CN3Cc4cccnc4OC(C)(C)C3)c2)C(C)(C)C(=O)O)nn1` (stereo not drawn) [Example 223, 3-(3-((2,2-Dimethyl-2,3-dihydropyrido[3,2-f][1,4]oxazepin-4(5H)-yl)methyl)-4-methylphenyl)-5-(1-ethyl-1H-1,2,3-triazol-4-yl)-2,2-dimethylpentanoic Acid], the EC50 fell in the range of 1 to 10 nM.

`CCn1nnc2c(F)c([C@H](c3ccc(C)c(CN4Cc5ccccc5OC(C)(C)C4)c3)[C@@H](C)C(=O)O)ccc21` [Example 193, (2R,3S)-3-(3-((2,2-Dimethyl-2,3-dihydro-benzo[f][1,4]oxazepin-4(5H)-yl)methyl)-4-methylphenyl)-3-(1-ethyl-4-fluoro-1H-benzo[d][1,2,3]triazol-5-yl)-2-methylpropanoic acid, Sodium salt]: the EC50 is 1 to 10 nM.

For the compound `CCC1CN(Cc2cc(C(CC(=O)O)c3ccc4c(nnn4C)c3C)ccc2C)Cc2ccc(Br)cc2O1` (stereo not drawn) [Example 82, 3-(3-((8-Bromo-2-ethyl-2,3-dihydrobenzo[f][1,4]oxazepin-4(5H)-yl)methyl)-4-methylphenyl)-3-(1,4-dimethyl-1H-benzo[d]-[1,2,3]triazol-5-yl)propanoic acid], the EC50 was 10 to 100 nM.

As to `CC[C@@H]1CN(Cc2cc([C@@H](c3ccc4c(nnn4C)c3C)[C@@H](C)C(=O)O)ccc2C)Cc2ccccc2O1` [Example 38, (2R,3S)-3-(1,4-dimethyl-1H-benzo[d][1,2,3]triazol-5-yl)-3-(3-(((R)-2-ethyl-2,3-dihydrobenzo[f][1,4]oxazepin-4(5H)-yl)methyl)-4-methylphenyl)-2-methylpropanoic Acid, Formic Acid Salt], the EC50 lay in the range of 10 to 100 nM.

Take `CCc1ncc2c(n1)CN(Cc1cc(C(CC(=O)O)c3ccc4c(nnn4C)c3C)ccc1C)CC2` (stereo not drawn) [Example 13, Ammonium 3-(1,4-dimethyl-1H-benzo[d][1,2,3]triazol-5-yl)-3-(3-((2-ethyl-5,6-dihydropyrido[3,4-d]pyrimidin-7(8H)-yl)methyl)-4-methylphenyl)propanoate]: the EC50 is 1000 to 10000 nM.

For the compound `CCCn1cc(CCC(CC(=O)O)c2ccc(C)c(CN3CCCC(n4cccn4)C3)c2)nn1` (stereo not drawn) [Example 163, 3-(3-((3-(1H-pyrazol-1-yl)piperidin-1-yl)methyl)-4-methylphenyl)-5-(1-propyl-1H-1,2,3-triazol-4-yl)pentanoic Acid, Formic Acid Salt], the EC50 was in the range of 1000 to 10000 nM.

As to `Cc1ccc(C(CC(=O)O)c2ccc3c(nnn3C)c2C)cc1Cc1nnnn1CC1CCCCC1` (stereo not drawn) [Example 134, 3-(3-((1-(Cyclohexylmethyl)-1H-tetrazol-5-yl)methyl)-4-methylphenyl)-3-(1,4-dimethyl-1H-benzo[d][1,2,3]triazol-5-yl)propanoic acid, hydrochloride salt], the EC50 fell in the range of 100 to 1000 nM.

For `Cc1ccc(C(c2ccc3c(nnn3C)c2C)C(C)(C)C(=O)O)cc1Cn1ccnc1CN1C2CCCC1CC2` (stereo not drawn) [Example 156, 3-(3-((2-(8-Azabicyclo[3.2.1]octan-8-ylmethyl)-1H-imidazol-1-yl)methyl)-4-methylphenyl)-3-(1,4-dimethyl-1H-benzo[d][1,2,3]triazol-5-yl)-2,2-dimethylpropanoic Acid, Trifluoroacetic Acid Salt], the EC50 was 10 to 100 nM.

Regarding `Cc1ccc([C@H](c2ccc3c(nnn3C)c2C)C(C)(C)C(=O)O)cc1Cc1cnnn1CC1CCCCCC1` (single isomer, unassigned) [Example 242], the EC50 was 10 to 100 nM.

Regarding `CC[C@@H]1CN(Cc2cc(C(CC(=O)O)c3cnc4c(nnn4C)c3C)ccc2C)Cc2ccccc2O1` (stereo partly drawn) [Example 47, 3-(3,7-Dimethyl-3H-[1,2,3]triazolo[4,5-b]pyridin-6-yl)-3-(3-(((R)-2-ethyl-2,3-dihydrobenzo[f][1,4]oxazepin-4(5H)-yl)methyl)-4-methylphenyl)propanoic Acid, Trifluoroacetic Acid Salt], the EC50 was in the range of 100 to 1000 nM.

`CC[C@@H]1CN(Cc2cc([C@@H](c3ccc4c(nnn4C)c3C)[C@H](C)C(=O)O)ccc2C)Cc2ccccc2O1` [Example 41, (2S,3S)-3-(1,4-Dimethyl-1H-benzo[d][1,2,3]triazol-5-yl)-3-(3-(((R)-2-ethyl-2,3-dihydrobenzo[f][1,4]oxazepin-4(5H)-yl)methyl)-4-methylphenyl)-2-methylpropanoic Acid]: the EC50 was in the range of 100 to 1000 nM.

The assay is the same for the next values; noted with them: Homo sapiens; BEAS-2B cells, 48 hours with compound, MTT readout; read-out: EC50 of NQO1 specific activity induction.
Turning to `CC[C@@H]1CN(Cc2cc(C(c3ccc4c(nnn4C)c3C)C(C)(C)C(=O)O)ccc2C)Cc2ccccc2O1` (stereo partly drawn) [Example 114, 3-(1,4-Dimethyl-1H-benzo[d][1,2,3]triazol-5-yl)-3-(3-(((R)-2-ethyl-2,3-dihydrobenzo[f][1,4]oxazepin-4(5H)-yl)methyl)-4-methylphenyl)-2,2-dimethylpropanoic Acid, Lithium Salt], the EC50 was in the range of 100 to 1000 nM.
